# Reference: patent publication US20240140991A1, “ANTIBIOTIC NATURAL PRODUCT ANALOGUES” (THE QUEEN'S UNIVERSITY OF BELFAST, priority 2021, published 2024)
# Positions of bridges follow the written chain, without caps; N, C: chain ends. Non-standard residues stand in square brackets, D forms with d. Residues, ends and D or L forms follow the SMILES beside them. ξ: configuration not given here. *: point of attachment. Octanoyl(7-Me) = CC(C)CCCCCC(=O)*; Hexanoyl(4ξ-Me) = CCC(C)CCC(=O)*; dOrn = NCCC[C@@H](N)C(=O)O; Octanoyl = CCCCCCCC(=O)*; Orn = NCCC[C@H](N)C(=O)O; Dap = NC[C@H](N)C(=O)O; Alloc = C=CCOC(=O)*; OAll = C=CCO*
# System: Escherichia coli ATCC 25922
# Assay type: cell-based
# Settings: for Minimum inhibitory concentration (MIC): ATCC 25922
# Experimental: Minimum inhibitory concentration (MIC) was determined by broth microdilution according to CLSI guidelines. Blood agar plates were inoculated with glycerol stocks of Escherichia coli ATCC 25922, E. coli ATCC 25922 MCR-1, E. coli MCR-1 (clinical isolate from Utrecht Medical Center, NL), E. coli EQAS MCR-2 (clinical isolate from Wageningen University and Research, NL), Kiebsielia pneumoniae ATCC 11228, K. pneumoniae ATCC 13883, K. pneumonia 2048 (clinical isolate from Vrije Universiteit Amsterdam Medical Center, NL), K. pneumonia JS-123 (clinical isolate from Utrecht Medical Center, NL), Acinetobacter baumannii ATCC 17961, A. baumannil ATCC 17978, A. baumannii 2018-006 (clinical isolate from Rijksinstituut voor Volksgezondheid en Milieu, NL), A. baumannii MDR (clinical isolate from Vrije Universiteit Amsterdam Medical Center, NL), Pseudomonas aeruginosa ATCC 27853, P. aeruginosa PAO1, P. aeruginosa NRZ-03961 (Reference strain from Das Nationale Referenzzentrum für gramnegative Krankenhauserreger, DE), P. aeruginosa M-120 (clinical isolate from Leiden University Medical Center, NL) and Staphylococcus aureus USA300 (clinical isolate from Texas Children's Hospitalm, USA). E. coli 25922 MCR1 was grown on LB agar supplemented with kanamycin. The inoculated agar plates were then incubated for 16 hours at 37° C. Individually grown colonies were subsequently used to inoculate 3 mL aliquots of TSB that were then incubated at 37° C. with shaking at 220 rpm. In parallel, the compounds to be assessed were serially diluted with Mueller-Hinton broth (MHB) in polypropylene 96-well plates (50 μL in each well). Once the OD600 of the bacterial suspensions reached 0.5, the bacteria were diluted with MHB (final concentration 2×10^5 CFU mL^−1) and added to the microplates containing the test compounds (50 μL to each well, final volume: 100 μL). The well-plates were sealed with an adhesive membrane and after 16 hours of incubation at 37° C. with shaking at 220 rpm the wells were visually inspected for bacterial growth. MIC values were defined as the lowest concentration of the compound that prevented visible growth of bacteria.
Compound,Minimum inhibitory concentration (MIC),MIC values against E. coli ATCC 25922 (in vitro activity quoted in the in vivo section)
CC[C@H](C)[C@@H]1NC(=O)[C@@H](NC(=O)[C@H](Cc2c[nH]c3ccccc23)NC(=O)[C@@H](CCCN)NC(=O)CNC(=O)[C@H](CCCN)NC(=O)[C@@H](CCCN)NC(=O)[C@@H](Cc2c[nH]c3ccccc23)NC(=O)[C@@H](Cc2ccc(O)cc2)NC(=O)[C@@H](CO)NC(=O)CCCCCC(C)C)[C@@H](C)OC(=O)[C@H](C)NC(=O)[C@@H](CO)NC(=O)CNC1=O [Compound R10] ({Octanoyl(7-Me)}-[dS][dY][dW][dOrn][Orn]G[dOrn]WTIG[dS]A; ester 9-C; N-terminus assumed),1 to 2 µg/mL,–
C=CCOC(=O)NC[C@H](NC(=O)[C@H](Cc1c[nH]c2ccccc12)NC(=O)[C@@H](CCCN)NC(=O)CNC(=O)[C@H](CCCN)NC(=O)[C@@H](CCCN)NC(=O)[C@@H](Cc1c[nH]c2ccccc12)NC(=O)[C@@H](Cc1ccc(O)cc1)NC(=O)[C@@H](CO)NC(=O)CCCCCCC)C(=O)N[C@H](C(=O)N[C@@H](CC(N)=O)C(N)=O)[C@@H](C)CC [ΔG12-G13-Dap(Alloc)9-C8] (Octanoyl-[dS][dY][dW][dOrn][Orn]G[dOrn]W[Dap](Alloc)IN-NH2),4 µg/mL,–
CC[C@H](C)[C@H](NC(=O)[C@@H](NC(=O)[C@H](Cc1c[nH]c2ccccc12)NC(=O)[C@@H](CCCN)NC(=O)CNC(=O)[C@H](CCCN)NC(=O)[C@@H](CCCN)NC(=O)[C@@H](Cc1c[nH]c2ccccc12)NC(=O)[C@@H](Cc1ccc(O)cc1)NC(=O)[C@@H](CO)NC(=O)CCCCCC(C)C)[C@@H](C)O)C(=O)N[C@@H](CC(N)=O)C(=O)NCC(=O)NCC(N)=O [Thr9-CONH2] ({Octanoyl(7-Me)}-[dS][dY][dW][dOrn][Orn]G[dOrn]WTINGG-NH2),2 to 4 µg/mL,–
C=CCOC(=O)NC[C@H](NC(=O)[C@H](Cc1c[nH]c2ccccc12)NC(=O)[C@@H](CCCN)NC(=O)CNC(=O)[C@H](CCCN)NC(=O)[C@@H](CCCN)NC(=O)[C@@H](Cc1c[nH]c2ccccc12)NC(=O)[C@@H](Cc1ccc(O)cc1)NC(=O)[C@@H](CO)NC(=O)CCCCCCC)C(=O)N[C@H](C(=O)N[C@@H](CC(N)=O)C(=O)NCC(N)=O)[C@@H](C)CC [ΔG13-Dap(Alloc)9-C8] (Octanoyl-[dS][dY][dW][dOrn][Orn]G[dOrn]W[Dap](Alloc)ING-NH2),2 to 4 µg/mL,–
CC[C@H](C)[C@@H]1NC(=O)[C@@H](NC(=O)[C@H](Cc2c[nH]c3ccccc23)NC(=O)[C@@H](CCCN)NC(=O)CNC(=O)[C@H](CCCN)NC(=O)[C@@H](CCCN)NC(=O)[C@@H](Cc2c[nH]c3ccccc23)NC(=O)[C@@H](Cc2ccc(O)cc2)NC(=O)[C@@H](CO)NC(=O)CCCCCC(C)C)[C@@H](C)OC(=O)[C@H](C)NC(=O)[C@H](CO)NC(=O)CNC1=O [Compound R9] ({Octanoyl(7-Me)}-[dS][dY][dW][dOrn][Orn]G[dOrn]WTIGSA; ester 9-C; N-terminus assumed),1 to 2 µg/mL,–
"CC[C@H](C)[C@H](NC(=O)[C@@H](NC(=O)[C@H](Cc1c[nH]c2ccccc12)NC(=O)[C@@H](CCCN)NC(=O)CNC(=O)[C@H](CCCN)NC(=O)[C@@H](CCCN)NC(=O)[C@@H](C)NC(=O)[C@@H](Cc1ccc(O)cc1)NC(=O)[C@@H](CO)NC(=O)CCCCCC(C)C)[C@@H](C)O)C(=O)N[C@@H](CC(N)=O)C(=O)NCC(=O)NCC(N)=O [Ala3 (D-Trp→D-Ala), FA-syaoOGoWTINGG-CONH2] ({Octanoyl(7-Me)}-[dS][dY][dA][dOrn][Orn]G[dOrn]WTINGG-NH2)",16 µg/mL,–
"CC[C@H](C)[C@H](NC(=O)[C@@H](NC(=O)[C@H](Cc1c[nH]c2ccccc12)NC(=O)[C@@H](CCCN)NC(=O)[C@H](C)NC(=O)[C@H](CCCN)NC(=O)[C@@H](CCCN)NC(=O)[C@@H](Cc1c[nH]c2ccccc12)NC(=O)[C@@H](Cc1ccc(O)cc1)NC(=O)[C@@H](CO)NC(=O)CCCCCC(C)C)[C@@H](C)O)C(=O)N[C@@H](CC(N)=O)C(=O)NCC(=O)NCC(N)=O [Ala6 (Gly→Ala), FA-sywoOAoWTINGG-CONH2] ({Octanoyl(7-Me)}-[dS][dY][dW][dOrn][Orn]A[dOrn]WTINGG-NH2)",4 to 8 µg/mL,–
"C[C@@H](N=[N+]=[N-])[C@H](N)C(=O)O [(2S,3R)-2-amino-3-azidobutanoic acid]",2 to 4 µg/mL,–
C=CCOC(=O)CC[C@H](NC(=O)[C@H](Cc1c[nH]c2ccccc12)NC(=O)[C@@H](CCCN)NC(=O)CNC(=O)[C@H](CCCN)NC(=O)[C@@H](CCCN)NC(=O)[C@@H](Cc1c[nH]c2ccccc12)NC(=O)[C@@H](Cc1ccc(O)cc1)NC(=O)[C@@H](CO)NC(=O)CCCCCC(C)C)C(=O)N[C@H](C(=O)N[C@@H](CC(N)=O)C(=O)NCC(=O)NCC(N)=O)[C@@H](C)CC [Glu(OAll)9-CONH2] ({Octanoyl(7-Me)}-[dS][dY][dW][dOrn][Orn]G[dOrn]WE(OAll)INGG-NH2),8 µg/mL,–
polymyxin B [reference compound],–,0.5 µg/mL
CCC(C)CCC(=O)N[C@H](CO)C(=O)N[C@H](Cc1ccc(O)cc1)C(=O)N[C@H](Cc1c[nH]c2ccccc12)C(=O)N[C@H](CCCN)C(=O)N[C@@H](CCCN)C(=O)NCC(=O)N[C@H](CCCN)C(=O)N[C@@H](Cc1c[nH]c2ccccc12)C(=O)N[C@@H]1C(=O)N[C@@H]([C@@H](C)CC)C(=O)NCC(=O)N[C@H](CO)C(=O)N[C@@H](C)C(=O)O[C@@H]1C (some centres unmarked) [Compound R6] ({Hexanoyl(4ξ-Me)}-[dS][dY][dW][dOrn][Orn]G[dOrn]WTIG[dS]A; ester 9-C; N-terminus assumed),1 µg/mL,–
CC[C@H](C)[C@H](NC(=O)[C@H](CN)NC(=O)[C@H](Cc1c[nH]c2ccccc12)NC(=O)[C@@H](CCCN)NC(=O)CNC(=O)[C@H](CCCN)NC(=O)[C@@H](CCCN)NC(=O)[C@@H](Cc1c[nH]c2ccccc12)NC(=O)[C@@H](Cc1ccc(O)cc1)NC(=O)[C@@H](CO)NC(=O)CCCCCC(C)C)C(=O)N[C@@H](CC(N)=O)C(=O)NCC(=O)NCC(N)=O [Dap9-CONH2] ({Octanoyl(7-Me)}-[dS][dY][dW][dOrn][Orn]G[dOrn]W[Dap]INGG-NH2),4 µg/mL,–
C=CCOC(=O)NC[C@H](NC(=O)[C@H](Cc1c[nH]c2ccccc12)NC(=O)[C@@H](CCCN)NC(=O)CNC(=O)[C@H](CCCN)NC(=O)[C@@H](CCCN)NC(=O)[C@@H](Cc1c[nH]c2ccccc12)NC(=O)[C@@H](Cc1ccc(O)cc1)NC(=O)[C@@H](CO)NC(=O)CCCCCC(C)C)C(=O)N[C@H](C(=O)N[C@@H](CC(N)=O)C(=O)NCC(=O)NCC(N)=O)[C@@H](C)CC [Dap(Alloc)9-CONH2] ({Octanoyl(7-Me)}-[dS][dY][dW][dOrn][Orn]G[dOrn]W[Dap](Alloc)INGG-NH2),2 µg/mL,–
"CC[C@H](C)[C@H](NC(=O)[C@@H](NC(=O)[C@H](Cc1c[nH]c2ccccc12)NC(=O)[C@@H](CCCN)NC(=O)CNC(=O)[C@H](C)NC(=O)[C@@H](CCCN)NC(=O)[C@@H](Cc1c[nH]c2ccccc12)NC(=O)[C@@H](Cc1ccc(O)cc1)NC(=O)[C@@H](CO)NC(=O)CCCCCC(C)C)[C@@H](C)O)C(=O)N[C@@H](CC(N)=O)C(=O)NCC(=O)NCC(N)=O [Ala5 (Orn→Ala), FA-sywoAGoWTINGG-CONH2] ({Octanoyl(7-Me)}-[dS][dY][dW][dOrn]AG[dOrn]WTINGG-NH2)",32 µg/mL,–
CCCCCCCC(=O)N[C@H](CO)C(=O)N[C@H](Cc1ccc(O)cc1)C(=O)N[C@H](Cc1c[nH]c2ccccc12)C(=O)N[C@H](CCCN)C(=O)N[C@@H](CCCN)C(=O)NCC(=O)N[C@H](CCCN)C(=O)N[C@@H](Cc1c[nH]c2ccccc12)C(=O)N[C@@H](CO)C(=O)N[C@H](C(=O)N[C@@H](CC(N)=O)C(N)=O)[C@@H](C)CC [ΔG12-G13-Ser9-C8] (Octanoyl-[dS][dY][dW][dOrn][Orn]G[dOrn]WSIN-NH2),4 µg/mL,–
"CC[C@H](C)[C@H](NC(=O)[C@@H](NC(=O)[C@H](Cc1c[nH]c2ccccc12)NC(=O)[C@@H](CCCN)NC(=O)CNC(=O)[C@H](CCCN)NC(=O)[C@@H](CCCN)NC(=O)[C@@H](Cc1c[nH]c2ccccc12)NC(=O)[C@@H](Cc1ccc(O)cc1)NC(=O)[C@@H](CO)NC(=O)CCCCCC(C)C)[C@@H](C)O)C(=O)N[C@@H](CC(N)=O)C(=O)NCC(=O)N[C@@H](C)C(N)=O [Ala13 (Gly→Ala), FA-sywoOGoWTINGA-CONH2] ({Octanoyl(7-Me)}-[dS][dY][dW][dOrn][Orn]G[dOrn]WTINGA-NH2)",4 µg/mL,–
C=CCOC(=O)NC[C@H](NC(=O)[C@H](Cc1c[nH]c2ccccc12)NC(=O)[C@@H](CCCN)NC(=O)CNC(=O)[C@H](CCCN)NC(=O)[C@@H](CCCN)NC(=O)[C@@H](Cc1c[nH]c2ccccc12)NC(=O)[C@@H](Cc1ccc(O)cc1)NC(=O)[C@@H](CO)NC(=O)CCCCCC(C)C)C(=O)N[C@H](C(=O)N[C@@H](CC(N)=O)C(=O)NCC(N)=O)[C@@H](C)CC [ΔG13-Dap(Alloc)9-isoC9] ({Octanoyl(7-Me)}-[dS][dY][dW][dOrn][Orn]G[dOrn]W[Dap](Alloc)ING-NH2),2 µg/mL,–
